Reference: patent publication US20260078120A1, “SUBSTITUTED PYRIDOPYRIMIDINONES” (MIRATI THERAPEUTICS, INC., priority 2022, published 2026)
Where two headings read alike, the source gives them in different places.

What was measured:
[1] = tested on: SKBR3 (PI3Kα wild type) cells; test: CellTiter-Glo 2.0 luminescent cell viability assay, 72 hours, SKBR3 cells; type: cell-based; settings: Homo sapiens, SK-BR-3, 72 h
Method in brief: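 Viability measured via CTG luminescence following roughly 72 hours of compound exposure at 37° C. Dosing used a 10 um starting concentration diluted 1:4 over 10 points; percent-of-vehicle data fitted with a variable-slope four-parameter model for IC50.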

[2] = tested on: T47D (PI3Kα H1047R mutant) cells; test: CellTiter-Glo 2.0 luminescent cell viability assay, 72 hours, T47D cells; type: cell-based
Method in brief: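 Viability was measured by CellTiter-Glo 2.0 luminescence after approximately 72 h of compound exposure at 37° C. Plating was 1000 cells per well the day before dosing, with ten 1:4 dilutions from a 10 µM top concentration. Values as percent of vehicle were fitted by variable-slope log(inhibitor) regression to give IC50.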

[3] = SKBR3 (PI3Kα wild type) cells, CellTiter-Glo, approximately 72 hours, read-out: SKBR3 (WT) Viability IC50
[4] = Homo sapiens, T47D, 72 h, T47D (PI3Kα H1047R mutant) cells, CellTiter-Glo, approximately 72 hours, read-out: T47D (H1047R mutant) Viability IC50

Row | SMILES | IC50 [1, 3] [nM] | IC50 [2, 4] [nM] | IC50 ([1]; read-out: SKBR3 (WT) Viability IC50 (nM)) [nM] | IC50 ([2]; Homo sapiens, T47D, 72 h, read-out: T47D (H1047R mutant) Viability IC50 (nM)) [nM] | IC50 ([2]; T47D (PI3Kα H1047R mutant) cells, CellTiter-Glo, approximately 72 hours, read-out: T47D (H1047R mutant) Viability IC50) [nM]
1 | Cc1cc([C@@H](C)Nc2ccccc2C(=O)O)c2nc(N3CC4C5CCC(C5O)C4C3)c(C)c(=O)n2c1 (stereo partly drawn) [Example 11-35, 2-(((1R)-1-(2-(8-hydroxyoctahydro-2H-4,7-methanoisoindol-2-yl)-3,7-dimethyl-4-oxo-4H-pyrido[1,2-a]pyrimidin-9-yl)ethyl)amino)benzoic acid] | > 10000 | 136 |  |  | 
2 | CO[C@@H]1CCN(c2nc3c([C@@H](C)Nc4ccccc4C(=O)O)cc(C)cn3c(=O)c2C#N)CC1(F)F [Example 11-66, 2-(((R)-1-(3-cyano-2-((R)-3,3-difluoro-4-methoxypiperidin-1-yl)-7-methyl-4-oxo-4H-pyrido[1,2-a]pyrimidin-9-yl)ethyl)amino)benzoic acid] | > 10000 | 231 |  |  | 
3 | Cc1cc([C@@H](C)Nc2cccnc2C(=O)O)c2nc(N3CCC(F)(F)CC3)c(C#N)c(=O)n2c1 [Example 10-121, (R)-3-((1-(3-cyano-2-(4,4-difluoropiperidin-1-yl)-7-methyl-4-oxo-4H-pyrido[1,2-a]pyrimidin-9-yl)ethyl)amino)picolinic acid] | > 10000 | 103 |  |  | 
4 | Cc1cc([C@@H](C)Nc2ccccc2C(=O)O)c2nc(N3CCC(n4ccc(C(F)(F)F)n4)CC3)c(C)c(=O)n2c1 [Example 10-104, (R)-2-((1-(3,7-dimethyl-4-oxo-2-(4-(3-(trifluoromethyl)-1H-pyrazol-1-yl)piperidin-1-yl)-4H-pyrido[1,2-a]pyrimidin-9-yl)ethyl)amino)benzoic acid] | > 10000 | 87.8 |  |  | 
5 | Cc1cc([C@@H](C)Nc2ccccc2C(=O)O)c2nc(N3CCN(c4cccc(C#N)c4)C[C@@H]3C)c(C#N)c(=O)n2c1 [Example 11-85, 2-(((R)-1-(3-cyano-2-((S)-4-(3-cyanophenyl)-2-methylpiperazin-1-yl)-7-methyl-4-oxo-4H-pyrido[1,2-a]pyrimidin-9-yl)ethyl)amino)benzoic acid] | > 10000 | 404 |  |  | 
6 | Cc1cc([C@@H](C)Nc2ccccc2C(=O)O)c2nc(N3CCC4(CCOC4)CC3)c(C)c(=O)n2c1 [Example 10-130, (R)-2-((1-(3,7-dimethyl-4-oxo-2-(2-oxa-8-azaspiro[4.5]decan-8-yl)-4H-pyrido[1,2-a]pyrimidin-9-yl)ethyl)amino)benzoic acid] | > 10000 |  |  |  | 46.9
7 | Cc1cc([C@@H](C)Nc2ccccc2C(=O)O)c2nc(N3CCN(c4cccc(C#N)c4)C[C@H]3C)c(C)c(=O)n2c1 [Example 11-87, 2-(((R)-1-(2-((R)-4-(3-cyanophenyl)-2-methylpiperazin-1-yl)-3,7-dimethyl-4-oxo-4H-pyrido[1,2-a]pyrimidin-9-yl)ethyl)amino)benzoic acid] | > 10000 | 156 |  |  | 
8 | Cc1cc([C@@H](C)Nc2ccccc2C(=O)O)c2nc(N3C[C@@H](C)C(F)(F)C3)c(C)c(=O)n2c1 [Example 11-120, 2-(((R)-1-(2-((R)-3,3-difluoro-4-methylpyrrolidin-1-yl)-3,7-dimethyl-4-oxo-4H-pyrido[1,2-a]pyrimidin-9-yl)ethyl)amino)benzoic acid] | > 10000 | 168 |  |  | 

Continued, values first:

Row | IC50 [1, 3] [nM] | IC50 [2, 4] [nM] | IC50 ([1]; read-out: SKBR3 (WT) Viability IC50 (nM)) [nM] | IC50 ([2]; Homo sapiens, T47D, 72 h, read-out: T47D (H1047R mutant) Viability IC50 (nM)) [nM] | IC50 ([2]; T47D (PI3Kα H1047R mutant) cells, CellTiter-Glo, approximately 72 hours, read-out: T47D (H1047R mutant) Viability IC50) [nM] | SMILES
9 | > 10000 | 6860 |  |  |  | Cc1cc(C(C)Nc2ccccc2C(=O)O)c2nc(-c3ccccn3)cc(=O)n2c1 (stereo not shown) [Example 11-402, 2-((1-(7-methyl-4-oxo-2-(pyridin-2-yl)-4H-pyrido[1,2-a]pyrimidin-9-yl)ethyl)amino)benzoic acid]
10 | > 10000 | 119 |  |  |  | Cc1cc([C@@H](C)Nc2ccccc2C(=O)O)c2nc(N3CCN(c4ncc(C#N)cn4)CC3)c(C)c(=O)n2c1 [Example 11-258, (R)-2-((1-(2-(4-(5-cyanopyrimidin-2-yl)piperazin-1-yl)-3,7-dimethyl-4-oxo-4H-pyrido[1,2-a]pyrimidin-9-yl)ethyl)amino)benzoic acid]
11 | > 10000 | 520 |  |  |  | Cc1cc([C@@H](C)Nc2ccccc2C(=O)O)c2nc(N3CCC[C@@H](C(F)(F)F)C3)c(C)c(=O)n2c1 [Example 11-211, 2-(((R)-1-(3,7-dimethyl-4-oxo-2-((R)-3-(trifluoromethyl)piperidin-1-yl)-4H-pyrido[1,2-a]pyrimidin-9-yl)ethyl)amino)benzoic acid]
12 | > 10000 | 469 |  |  |  | Cc1cc([C@@H](C)Nc2ccccc2C(=O)O)c2nc(N3CCC4(CC3)COC4)c(C#N)c(=O)n2c1 [Example 11-208, (R)-2-((1-(3-cyano-7-methyl-4-oxo-2-(2-oxa-7-azaspiro[3.5]nonan-7-yl)-4H-pyrido[1,2-a]pyrimidin-9-yl)ethyl)amino)benzoic acid]
13 | > 10000 | 880 |  |  |  | Cc1cc(C(C)Nc2ccc(C(F)(F)F)nc2C(=O)O)c2nc(N3Cc4ccccc4C3)c(C)c(=O)n2c1 (stereo not shown) [Example 11-355, 3-((1-(2-(isoindolin-2-yl)-3,7-dimethyl-4-oxo-4H-pyrido[1,2-a]pyrimidin-9-yl)ethyl)amino)-6-(trifluoromethyl) picolinic acid]
14 |  |  | > 10000 | 1310 |  | Cc1cc(C(C)Nc2ccccc2C(=O)O)c2nc(N3CCOCC3)cc(=O)n2c1 (stereo not shown) [Example 11-420, 2-((1-(7-methyl-2-morpholino-4-oxo-4H-pyrido[1,2-a]pyrimidin-9-yl)ethyl)amino)benzoic acid]
15 | 9320 | 9250 |  |  |  | Cc1cc(C(C)Nc2ccccc2)c2nc(N3CCCCC3)c(C#N)c(=O)n2c1 (stereo not shown) [Example 11-299, 7-methyl-4-oxo-9-(1-(phenylamino)ethyl)-2-(piperidin-1-yl)-4H-pyrido[1,2-a]pyrimidine-3-carbonitrile]
16 | > 10000 | 428 |  |  |  | Cc1cc([C@@H](C)Nc2ccc(Cl)cc2C(=O)O)c2nc(N3CCCCC3)c(C)c(=O)n2c1 [Example 11-281, (R)-5-chloro-2-((1-(3,7-dimethyl-4-oxo-2-(piperidin-1-yl)-4H-pyrido[1,2-a]pyrimidin-9-yl)ethyl)amino)benzoic acid]
17 | > 10000 | 3010 |  |  |  | Cc1cc([C@@H](C)Nc2ccccc2C(=O)O)c2nc(N3CCn4cc(C(F)(F)F)nc4C3)c(C)c(=O)n2c1 [Example 11-433, (R)-2-((1-(3,7-dimethyl-4-oxo-2-(2-(trifluoromethyl)-5,6-dihydroimidazo[1,2-a]pyrazin-7(8H)-yl)-4H-pyrido[1,2-a]pyrimidin-9-yl)ethyl)amino)benzoic acid]
18 | > 10000 | 156 |  |  |  | Cc1cc([C@@H](C)Nc2ccccc2C(=O)O)c2nc(N3CC4C(C3)C4(F)F)c(C)c(=O)n2c1 (stereo partly drawn) [Example 11-222, 2-(((1R)-1-(2-(6,6-difluoro-3-azabicyclo[3.1.0]hexan-3-yl)-3,7-dimethyl-4-oxo-4H-pyrido[1,2-a]pyrimidin-9-yl)ethyl)amino)benzoic acid]
19 | > 10000 | 120 |  |  |  | Cc1cc([C@@H](C)Nc2ccccc2C(=O)O)c2nc(N3CC4CC4C3)c(C)c(=O)n2c1 (stereo partly drawn) [Example 11-224, 2-(((1R)-1-(2-(3-azabicyclo[3.1.0]hexan-3-yl)-3,7-dimethyl-4-oxo-4H-pyrido[1,2-a]pyrimidin-9-yl)ethyl)amino)benzoic acid]
20 | > 10000 | > 10000 |  |  |  | Cc1cc(C(C)Nc2ccccc2C(=O)O)c2nc(C3CCNCC3)cc(=O)n2c1 (stereo not shown) [Example 11-380, 2-((1-(7-methyl-4-oxo-2-(piperidin-4-yl)-4H-pyrido[1,2-a]pyrimidin-9-yl)ethyl)amino)benzoic acid]
